{
  "source": "paper PMC6746850",
  "about": "“Identification and Molecular Characterization of Superoxide Dismutases Isolated From A Scuticociliate Parasite: Physiological Role in Oxidative Stress” (Scientific Reports, 2019)",
  "key": {"Pd-Fe-SOD (FSD)": {"target": "T1, Pd-Fe-SOD (FSD) (Philasterides dicentrarchi, UniProt A0A481XSU7)", "T1 construct": "native enzyme, 60-65 kDa activity band in anion-exchange fraction P2 on native PAGE; homodimer", "T1 sequence (A0A481XSU7 22-249)": "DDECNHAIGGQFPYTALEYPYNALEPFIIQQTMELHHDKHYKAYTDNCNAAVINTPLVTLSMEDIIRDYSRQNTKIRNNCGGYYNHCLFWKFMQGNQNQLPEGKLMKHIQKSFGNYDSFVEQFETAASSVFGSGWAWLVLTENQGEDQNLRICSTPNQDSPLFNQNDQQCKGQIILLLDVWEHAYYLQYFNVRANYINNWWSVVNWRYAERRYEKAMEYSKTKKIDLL", "experiment": "SOD activity staining (NBT) in native PAGE", "assay_type": "biochemical", "conditions": "100 μM inhibitor; anion-exchange fraction P2 (methods also describe 30 min treatment of live ciliates before lysis)"}, "Pd-Mn-SOD (MSD)": {"target": "T2, Pd-Mn-SOD (MSD) (Philasterides dicentrarchi, UniProt A0A410JA19)", "T2 construct": "native enzyme, about 50 kDa activity band in anion-exchange fraction P2 on native PAGE; homodimer", "T2 sequence (A0A410JA19 13-220)": "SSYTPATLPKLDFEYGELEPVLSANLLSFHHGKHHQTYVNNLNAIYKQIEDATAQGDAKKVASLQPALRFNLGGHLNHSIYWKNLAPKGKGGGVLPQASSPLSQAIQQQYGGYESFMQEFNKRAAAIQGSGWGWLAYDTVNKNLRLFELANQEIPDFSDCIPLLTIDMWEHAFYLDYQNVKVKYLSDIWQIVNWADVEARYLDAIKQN", "experiment": "SOD activity staining (NBT) in native PAGE", "assay_type": "biochemical", "conditions": "100 μM inhibitor; anion-exchange fraction P2 (methods also describe 30 min treatment of live ciliates before lysis)"}},
  "data": [
    {"compound": "Oc1ccc(/C=C/c2cc(O)cc(O)c2)cc1", "note": "[trans-resveratrol]", "values": [
      {"measurement": "complete inhibition at 100 μM", "setting": "Pd-Fe-SOD (FSD)", "value": "completely inhibited the activity of the Pd-Fe-SOD isoenzyme"},
      {"measurement": "partial inhibition at 100 μM", "setting": "Pd-Mn-SOD (MSD)", "value": "RESV partly inhibited the activity of the Pd-Mn-SOD isoenzyme"}
    ]}
  ]
}
